Test results from patent publication US20230085307A1, “PYRIDAZINONE COMPOUND AND HERBICIDE” (NISSAN CHEMICAL CORPORATION, priority 2019, published 2023).

Assays:
wild oat [1] = assay: Test Example 4: herbicidal effect by soil treatment (Table 19, symbol I); assay type: in vivo, wild oat (Avena fatua); conditions: amount of applied herbicide 320 g/ha
Outline: (§1)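 Three weeks of greenhouse growth at 25° C. to 30° C. followed a uniform surface spray of water-diluted emulsion at a predetermined herbicide amount. Seeds had been sown beforehand under about 1.5 cm of sterilized diluvial soil. Grading followed criteria set out in an earlier test.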

velvetleaf [2] = assay: Test Example 4: herbicidal effect by soil treatment (Table 19, symbol M); assay type: in vivo, velvetleaf (Abutilon theophrasti); conditions: amount of applied herbicide 320 g/ha
Outline: as §1

lambsquarters [3] = assay: Test Example 5: herbicidal effect by foliage application, plastic box (Table 20, symbol O); assay type: in vivo, lambsquarters (Chenopodium album); conditions: 320 g/ha, evaluated three weeks after application
Outline: (§2)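 Plants sown in sterilized diluvial soil and grown 14 days in a greenhouse at 25° C to 30° C, then sprayed on the foliage with the compound's emulsion diluted in water to a predetermined herbicide amount. Injury to weeds and crops scored three weeks after application on a visual rating scale.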

windgrass [4] = assay: Test Example 5: herbicidal effect by foliage application, plastic box (Table 20, symbol L); assay type: in vivo, windgrass (Apera spica-venti); conditions: foliage application, 320 g/ha, evaluated three weeks after application
Outline: as §2

persian speedwell [5] = assay: Test Example 5: herbicidal effect by foliage application, plastic box (Table 20, symbol R); assay type: in vivo, Persian speedwell (Veronica persica); conditions: 320 g/ha, evaluated three weeks after application
Outline: as §2

persian speedwell [6] = assay: Test Example 4: herbicidal effect by soil treatment (Table 19, symbol R); assay type: in vivo, Persian speedwell (Veronica persica); conditions: amount of applied herbicide 320 g/ha
Outline: as §1

Japanese bulrush = assay: Test Example 1: herbicidal activity, application before weed generation under submerged conditions (Table 16, symbol B); assay type: in vivo, Japanese bulrush (Schoenoplectus juncoides)
Outline: (§3)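 Alluvial soil was flooded to 4 cm depth, weed seeds were sown mixed and 2.5-leaf rice seedlings were transplanted. On sowing day, the compound's emulsion, diluted in water to a set dose, was applied to the water surface. Plants grew at 25–30 °C and were scored 0–5 after three weeks.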

rice flat sedge = assay: Test Example 3: herbicidal effect by foliage application, Wagner pot (Table 18, symbol E); assay type: in vivo, rice flat sedge (Cyperus iria)
Outline: (§4)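 Plants were sown in alluvial soil held under 0.1–0.5 cm standing water and grown 14 days in a greenhouse at 25–30 °C. An emulsifiable formulation, water-diluted to the set dose, was then sprayed onto the foliage, and effects were scored three weeks later using previously defined criteria.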

lambsquarters [7] = assay: Test Example 4: herbicidal effect by soil treatment (Table 19, symbol O); assay type: in vivo, lambsquarters (Chenopodium album); conditions: amount of applied herbicide 320 g/ha
Outline: as §1

Italian ryegrass [8] = assay: Test Example 5: herbicidal effect by foliage application, plastic box (Table 20, symbol K); assay type: in vivo, Italian ryegrass (Lolium multiflorum); conditions: 320 g/ha, evaluated three weeks after application
Outline: as §2

green foxtail [9] = assay: Test Example 4: herbicidal effect by soil treatment (Table 19, symbol G); assay type: in vivo, green foxtail (Setaria viridis); conditions: amount of applied herbicide 320 g/ha
Outline: as §1

barnyard grass [10] = assay: Test Example 4: herbicidal effect by soil treatment (Table 19, symbol H); assay type: in vivo, barnyard grass (Echinochloa crus-galli); conditions: amount of applied herbicide 320 g/ha
Outline: as §1

redroot pigweed [11] = assay: Test Example 4: herbicidal effect by soil treatment (Table 19, symbol N); assay type: in vivo, redroot pigweed (Amaranthus retroflexus); conditions: amount of applied herbicide 320 g/ha
Outline: as §1

oval-leafed pondweed = assay: Test Example 1: herbicidal activity, application before weed generation under submerged conditions (Table 16, symbol C); assay type: in vivo, oval-leafed pondweed (Monochoria vaginalis)
Outline: as §3

wild oat [12] = assay: Test Example 5: herbicidal effect by foliage application, plastic box (Table 20, symbol I); assay type: in vivo, wild oat (Avena fatua); conditions: 320 g/ha, evaluated three weeks after application
Outline: as §2

chickweed [13] = assay: Test Example 4: herbicidal effect by soil treatment (Table 19, symbol P); assay type: in vivo, common chickweed (Stellaria media); conditions: amount of applied herbicide 320 g/ha
Outline: as §1

Italian ryegrass [14] = assay: Test Example 4: herbicidal effect by soil treatment (Table 19, symbol K); assay type: in vivo, Italian ryegrass (Lolium multiflorum); conditions: amount of applied herbicide 320 g/ha
Outline: as §1

barnyard grass [15] = assay: Test Example 5: herbicidal effect by foliage application, plastic box (Table 20, symbol H); assay type: in vivo, barnyard grass (Echinochloa crus-galli); conditions: 320 g/ha, evaluated three weeks after application
Outline: as §2

velvetleaf [16] = assay: Test Example 5: herbicidal effect by foliage application, plastic box (Table 20, symbol M); assay type: in vivo, velvetleaf (Abutilon theophrasti); conditions: 320 g/ha, evaluated three weeks after application
Outline: as §2

blackgrass [17] = assay: Test Example 5: herbicidal effect by foliage application, plastic box (Table 20, symbol J); assay type: in vivo, blackgrass (Alopecurus myosuroides); conditions: 320 g/ha, evaluated three weeks after application
Outline: as §2

barnyard grass [18] = assay: Test Example 3: herbicidal effect by foliage application, Wagner pot (Table 18, symbol H); assay type: in vivo, barnyard grass (Echinochloa crus-galli)
Outline: as §4

green foxtail [19] = assay: Test Example 5: herbicidal effect by foliage application, plastic box (Table 20, symbol G); assay type: in vivo, green foxtail (Setaria viridis); conditions: 320 g/ha, evaluated three weeks after application
Outline: as §2

chickweed [20] = assay: Test Example 5: herbicidal effect by foliage application, plastic box (Table 20, symbol P); assay type: in vivo, common chickweed (Stellaria media); conditions: 320 g/ha, evaluated three weeks after application
Outline: as §2

windgrass [21] = assay: Test Example 4: herbicidal effect by soil treatment (Table 19, symbol L); assay type: in vivo, windgrass (Apera spica-venti); conditions: amount of applied herbicide 320 g/ha
Outline: as §1

southern crabgrass [22] = assay: Test Example 5: herbicidal effect by foliage application, plastic box (Table 20, symbol F); assay type: in vivo, southern crabgrass (Digitaria ciliaris); conditions: 320 g/ha, evaluated three weeks after application
Outline: as §2

Chinese sprangletop = assay: Test Example 3: herbicidal effect by foliage application, Wagner pot (Table 18, symbol D); assay type: in vivo, chinese sprangletop (Leptochloa chinensis)
Outline: as §4

blackgrass [23] = assay: Test Example 4: herbicidal effect by soil treatment (Table 19, symbol J); assay type: in vivo, blackgrass (Alopecurus myosuroides); conditions: amount of applied herbicide 320 g/ha
Outline: as §1

late watergrass = assay: Test Example 1: herbicidal activity, application before weed generation under submerged conditions (Table 16, symbol A); assay type: in vivo, late watergrass (Echinochloa oryzicola)
Outline: as §3

southern crabgrass [24] = assay: Test Example 4: herbicidal effect by soil treatment (Table 19, symbol F); assay type: in vivo, southern crabgrass (Digitaria ciliaris); conditions: amount of applied herbicide 320 g/ha
Outline: as §1

redroot pigweed [25] = assay: Test Example 5: herbicidal effect by foliage application, plastic box (Table 20, symbol N); assay type: in vivo, redroot pigweed (Amaranthus retroflexus); conditions: 320 g/ha, foliage application after 14-day growth, evaluated three weeks after application
Outline: as §2

[26] = amount of applied herbicide 320 g/ha
[27] = foliage application after 14-day growth

CCCOc1ccc2sc(-c3ccc(F)cc3OC)c(-c3c(O)c(C)nn(C)c3=O)c2c1 [2-173]
I: wild oat, herbicidal effect rating (wild oat [1]): 0 (Herbicidal rate of 5% or less (almost no effect))
M: velvetleaf, herbicidal effect rating (velvetleaf [2]): 0 (Herbicidal rate of 5% or less (almost no effect))
herbicidal effect on O: lambsquarters (criteria 0-5) (lambsquarters [3]; foliage application): 1 (Herbicidal rate of 5% or more and less than 20%)
herbicidal effect on L: windgrass (criteria 0-5) (windgrass [4]): 4 (Herbicidal rate of 70% or more and less than 90%)
herbicidal effect on R: persian speedwell (criteria 0-5) (persian speedwell [5]; foliage application): 5 (Herbicidal rate of 90% or more (almost completely withered))
R: persian speedwell, herbicidal effect rating (persian speedwell [6]): 0 (Herbicidal rate of 5% or less (almost no effect))
Herbicidal effect on B: Japanese bulrush (grade 0-5) (Japanese bulrush; 320 g/ha applied herbicide): 0 (Herbicidal rate of 5% or less (almost no effect))
herbicidal effect on E: rice flat sedge (rice flat sedge; [26]): 2 (Herbicidal rate of 20% or more and less than 40%)
O: lambsquarters, herbicidal effect rating (lambsquarters [7]): 0 (Herbicidal rate of 5% or less (almost no effect))
herbicidal effect on K: Italian ryegrass (criteria 0-5) (Italian ryegrass [8]; foliage application): 0 (Herbicidal rate of 5% or less (almost no effect))
G: green foxtail, herbicidal effect rating (green foxtail [9]): 0 (Herbicidal rate of 5% or less (almost no effect))
H: barnyard grass, herbicidal effect rating (barnyard grass [10]): 0 (Herbicidal rate of 5% or less (almost no effect))
N: redroot pigweed, herbicidal effect rating (redroot pigweed [11]): 0 (Herbicidal rate of 5% or less (almost no effect))
Herbicidal effect on C: oval-leafed pondweed (grade 0-5) (oval-leafed pondweed; 320 g/ha applied herbicide): 0 (Herbicidal rate of 5% or less (almost no effect))
herbicidal effect on I: wild oat (criteria 0-5) (wild oat [12]; foliage application): 0 (Herbicidal rate of 5% or less (almost no effect))
P: chickweed, herbicidal effect rating (chickweed [13]): 3 (Herbicidal rate of 40% or more and less than 70%)
K: Italian ryegrass, herbicidal effect rating (Italian ryegrass [14]): 0 (Herbicidal rate of 5% or less (almost no effect))
herbicidal effect on H: barnyard grass (criteria 0-5) (barnyard grass [15]; foliage application): 0 (Herbicidal rate of 5% or less (almost no effect))
herbicidal effect on M: velvetleaf (criteria 0-5) (velvetleaf [16]; foliage application): 0 (Herbicidal rate of 5% or less (almost no effect))
herbicidal effect on J: blackgrass (criteria 0-5) (blackgrass [17]; foliage application): 4 (Herbicidal rate of 70% or more and less than 90%)
herbicidal effect on H: barnyard grass (barnyard grass [18]; [26]): 3 (Herbicidal rate of 40% or more and less than 70%)
herbicidal effect on G: green foxtail (criteria 0-5) (green foxtail [19]; foliage application): 0 (Herbicidal rate of 5% or less (almost no effect))
herbicidal effect on P: chickweed (criteria 0-5) (chickweed [20]; foliage application): 5 (Herbicidal rate of 90% or more (almost completely withered))
L: windgrass, herbicidal effect rating (windgrass [21]): 0 (Herbicidal rate of 5% or less (almost no effect))
herbicidal effect on F: southern crabgrass (criteria 0-5) (southern crabgrass [22]; foliage application): 0 (Herbicidal rate of 5% or less (almost no effect))
herbicidal effect on D: Chinese sprangletop (Chinese sprangletop; [26]): 2 (Herbicidal rate of 20% or more and less than 40%)
J: blackgrass, herbicidal effect rating (blackgrass [23]): 0 (Herbicidal rate of 5% or less (almost no effect))
Herbicidal effect on A: late watergrass (grade 0-5) (late watergrass; 320 g/ha applied herbicide): 2 (Herbicidal rate of 20% or more and less than 40%)
F: southern crabgrass, herbicidal effect rating (southern crabgrass [24]): 0 (Herbicidal rate of 5% or less (almost no effect))

COc1ccc(-c2sc3c(Cl)cccc3c2-c2c(O)c(C)nn(C)c2=O)cc1 [4-023]
Herbicidal effect by soil treatment, I: wild oat (wild oat [1]): 0 (Herbicidal rate of 5% or less (almost no effect))
Herbicidal effect by soil treatment, M: velvetleaf (velvetleaf [2]): 0 (Herbicidal rate of 5% or less (almost no effect))
herbicidal effect on O: lambsquarters (evaluation grade 0-5) (lambsquarters [3]; [27]): 2 (Herbicidal rate of 20% or more and less than 40%)
herbicidal effect on R: persian speedwell (evaluation grade 0-5) (persian speedwell [5]; [27]): 0 (Herbicidal rate of 5% or less (almost no effect))
Herbicidal effect by soil treatment, R: persian speedwell (persian speedwell [6]): 0 (Herbicidal rate of 5% or less (almost no effect))
Herbicidal effect, B: Japanese bulrush (Japanese bulrush; [26]): 0 (Herbicidal rate of 5% or less (almost no effect))
herbicidal effect on rice flat sedge (E) (rice flat sedge; 320 g/ha): 5 (Herbicidal rate of 90% or more (almost completely withered))
Herbicidal effect by soil treatment, O: lambsquarters (lambsquarters [7]): 3 (Herbicidal rate of 40% or more and less than 70%)
herbicidal effect on K: Italian ryegrass (evaluation grade 0-5) (Italian ryegrass [8]; [27]): 5 (Herbicidal rate of 90% or more (almost completely withered))
Herbicidal effect by soil treatment, G: green foxtail (green foxtail [9]): 0 (Herbicidal rate of 5% or less (almost no effect))
Herbicidal effect by soil treatment, H: barnyard grass (barnyard grass [10]): 0 (Herbicidal rate of 5% or less (almost no effect))
Herbicidal effect by soil treatment, N: redroot pigweed (redroot pigweed [11]): 2 (Herbicidal rate of 20% or more and less than 40%)
Herbicidal effect, C: oval-leafed pondweed (oval-leafed pondweed; [26]): 0 (Herbicidal rate of 5% or less (almost no effect))
herbicidal effect on I: wild oat (evaluation grade 0-5) (wild oat [12]; [27]): 0 (Herbicidal rate of 5% or less (almost no effect))
Herbicidal effect by soil treatment, P: chickweed (chickweed [13]): 5 (Herbicidal rate of 90% or more (almost completely withered))
Herbicidal effect by soil treatment, K: Italian ryegrass (Italian ryegrass [14]): 5 (Herbicidal rate of 90% or more (almost completely withered))
herbicidal effect on H: barnyard grass (evaluation grade 0-5) (barnyard grass [15]; [27]): 2 (Herbicidal rate of 20% or more and less than 40%)
herbicidal effect on M: velvetleaf (evaluation grade 0-5) (velvetleaf [16]; [27]): 3 (Herbicidal rate of 40% or more and less than 70%)
herbicidal effect on J: blackgrass (evaluation grade 0-5) (blackgrass [17]; [27]): 0 (Herbicidal rate of 5% or less (almost no effect))
herbicidal effect on barnyard grass (H) (barnyard grass [18]; 320 g/ha): 5 (Herbicidal rate of 90% or more (almost completely withered))
herbicidal effect on G: green foxtail (evaluation grade 0-5) (green foxtail [19]; [27]): 1 (Herbicidal rate of 5% or more and less than 20%)
herbicidal effect on P: chickweed (evaluation grade 0-5) (chickweed [20]; [27]): 5 (Herbicidal rate of 90% or more (almost completely withered))
Herbicidal effect by soil treatment, L: windgrass (windgrass [21]): 0 (Herbicidal rate of 5% or less (almost no effect))
herbicidal effect on F: southern crabgrass (evaluation grade 0-5) (southern crabgrass [22]; [27]): 0 (Herbicidal rate of 5% or less (almost no effect))
herbicidal effect on N: redroot pigweed (evaluation grade 0-5) (redroot pigweed [25]): 1 (Herbicidal rate of 5% or more and less than 20%)
herbicidal effect on Chinese sprangletop (D) (Chinese sprangletop; 320 g/ha): 3 (Herbicidal rate of 40% or more and less than 70%)
Herbicidal effect by soil treatment, J: blackgrass (blackgrass [23]): 0 (Herbicidal rate of 5% or less (almost no effect))
Herbicidal effect, A: late watergrass (late watergrass; [26]): 3 (Herbicidal rate of 40% or more and less than 70%)
Herbicidal effect by soil treatment, F: southern crabgrass (southern crabgrass [24]): 0 (Herbicidal rate of 5% or less (almost no effect))
